Patent US12419305B2, “Antimicrobial compositions” (Firmenich SA, priority 2018, dated 2025)

Key:
[1] = tested on: Pseudomonas aeruginosa ATCC 15442; experiment: BCT test (bacterial contact time), 60 s, log reduction / effect fraction; CI by Compusyn; type: cell-based; conditions: Pseudomonas aeruginosa, ATCC15442, 1 min, BCT 60 s, in 25% EtOH
Description: (§1) E. coli, S. aureus, P. aeruginosa, and S. enterica: Separate suspensions of the E. coli ATCC 10536 strain, S. aureus ATCC 6538 strain, Pseudomonas aeruginosa ATCC 15442 strain, and the Salmonella enterica ATCC 10708 strain were prepared as follows: Stock cultures (stored at −80° C.) were thawed and sub-cultured onto Tryptic Soy Agar (TSA) agar plate media, and incubated at 37° C. for 24 h to obtain single colonies. Single colonies of the primary cultures were streaked onto TSA plates and incubated at 37° for 24 h to generate secondary cultures. Single colonies of secondary cultures picked and used to inoculate into 50 mL of TSB broth. The inoculated TSB broth was incubated at 37° C. at 180 rpm for 18 h. Aliquots (0.5 ml) of the 18 h culture were inoculated into 50 ml of fresh TSB broth, and incubated at 37° C. at 180 rpm for 2-3 hours. When the OD600 nm value of the broth reached 1-2, cells were harvested by centrifugation at 5000 rpm for 10 min, and then resuspended in fresh TSB broth at a concentration of 1-5×10^8 CFU/mL. These suspensions were used as the bacterial suspensions for the BCT test.
(§2) BCT Test: Test compositions at a range of concentrations (either combinations of more than one perfume ingredient, and comparative compositions comprising the single perfume ingredients) were prepared in ethanol. Five replicates of each test composition were added into 96-well microtiter plates (120 μl per well), with row B containing control compositions containing the ethanol solution alone. 120 μl of bacterial cell suspensions at a concentration of approximately 1×10^8 bacteria per mL (as prepared above) were added to each well of the microtiter plate. The bacterial suspensions were incubated with the test solutions for 45, 60, or 120 seconds. Following the incubation of the bacterial suspensions with the test solutions, serial dilutions of the bacterial suspensions were generated (three serial 1:10 dilutions, followed by 17 serial 1:2 dilutions), in multiwell microtiter plates.
(§3) Each plate was sealed and incubated at 37° C. under agitation (180 rpm). After incubation, the turbidity of the wells (OD600 nm) was determined using a Tecan microplate reader. Turbid wells were regarded as positive growth, due to the presence of viable cells. The total number of viable cells (log CFU) for each sample was calculated. And the log reduction for each test composition at the final concentration (dose) was calculated against the control sample of the ethanol solution.
(§4) Determination of Synergy via the Combination Index (CI): The CI was calculated using Compusyn software (ComboSyn, Inc., as created by Dr. Dorothy Chou in 2005), according to the manufacturer's instructions. The concentration of each test composition (combinations of more than one perfume ingredient, and comparative compositions comprising the single perfume ingredients used to generate the combination) and their corresponding effect fraction was entered, and the corresponding CI calculated.
(§5) When the calculated CI values were less than 0.9, the combination of perfume ingredients was regarded as having synergistic effect. When the calculated CI was between 1.0 a 0.9, the combination of perfume ingredients was regarded as having an additive effect. When the calculated CI was greater than 1.0, the combination of perfume ingredients was regarded as having an antagonistic effect.

[2] = tested on: S. aureus ATCC 6538; experiment: as above; type: cell-based, Staphylococcus aureus; conditions: in 25% EtOH
Description: as §1, §2, §3, §4, §5

[3] = tested on: E. coli ATCC 10536; experiment: BCT test (bacterial contact time), 45 s, log reduction / effect fraction; CI by Compusyn; type: cell-based, Escherichia coli; conditions: 45 s, in 20% EtOH
Description: as §1, §2, §3, §4, §5

[4] = tested on: Salmonella enterica ATCC 10708; experiment: BCT test (bacterial contact time), 60 s, log reduction / effect fraction; CI by Compusyn; type: cell-based; conditions: BCT 60 s, in 25% EtOH
Description: as §1, §2, §3, §4, §5

`COc1ccc(C=O)cc1` [Aldehyde Anisic, 4-methoxybenzaldehyde] showed a log reduction at 0.3 % strength ([1]; Dose 0.3 % w/v, read-out: Log reduction) of 0.6, a log reduction at 0.35 % strength ([1]; Dose 0.35 % w/v) of 1.6 and a log reduction at 0.45 % strength ([1]; Dose 0.45 % w/v, read-out: Log reduction) of 6.2. The log reduction at 0.475 % strength ([1]; Dose 0.475 % w/v) was 5.9, the log reduction at 0.5 % strength ([1]; Dose 0.5 % w/v) was 7 and the log reduction at 0.5 % strength ([2]; Staphylococcus aureus, ATCC6538, 1 min, dose 0.500 % w/v, 60 s, read-out: Log reduction) was 0.7. The log reduction at 0.6 % strength ([2]; Staphylococcus aureus, ATCC6538, 1 min, dose 0.600 % w/v, 60 s, read-out: Log reduction) was 2.3, the log reduction at 0.65 % strength ([2]; Staphylococcus aureus, ATCC6538, 1 min, dose 0.650 % w/v, 60 s) was 3.5 and the log reduction at 0.7 % strength ([2]; Staphylococcus aureus, ATCC6538, 1 min, dose 0.700 % w/v, 60 s, read-out: Log reduction) was 5.9. The log reduction at 0.8 % strength ([2]; Staphylococcus aureus, ATCC6538, 1 min, dose 0.800 % w/v, 60 s) was 6.9, the log reduction at 0.4 % strength ([3]; Escherichia coli, ATCC10536, 45 s, dose 0.400 % w/v) was 0.3 and the log reduction at 0.45 % strength ([3]; Escherichia coli, ATCC10536, 45 s, dose 0.450 % w/v, read-out: Log reduction) was 0.6. The log reduction at 0.5 % strength ([3]; Escherichia coli, ATCC10536, 45 s, dose 0.500 % w/v) was 2.7, the log reduction at 0.55 % strength ([3]; Escherichia coli, ATCC10536, 45 s, dose 0.550 % w/v, read-out: Log reduction) was 6.7 and the log reduction at 0.6 % strength ([3]; Escherichia coli, ATCC10536, 45 s, dose 0.600 % w/v, read-out: Log reduction) was 7.3.
`COc1ccc(C=O)cc1` [Aldehyde Anisique] gave an Effect fraction ([4]; Dose 0.4 % w/v) of 0.190, a Log reduction ([4]; Dose 0.4 % w/v) of 1.5 and an Effect fraction ([4]; Dose 0.42 % w/v) of 0.370. It also gave a Log reduction ([4]; Dose 0.42 % w/v) of 2.8, an Effect fraction ([4]; Dose 0.46 % w/v) of 0.670 and a Log reduction ([4]; Dose 0.46 % w/v) of 5.2. It also gave an Effect fraction ([4]; Dose 0.5 % w/v) of 1.000 and a Log reduction ([4]; Dose 0.5 % w/v) of 7.7.
In the case of `OCc1ccccc1` [Benzyl alcohol], the log reduction at 1 % strength ([3]; Escherichia coli, ATCC10536, 45 s, dose 1.000 % w/v) is reported as 0.2, the log reduction at 1.2 % strength ([3]; Escherichia coli, ATCC10536, 45 s, dose 1.200 % w/v) is reported as 2 and the log reduction at 1.3 % strength ([3]; Escherichia coli, ATCC10536, 45 s, dose 1.300 % w/v) is reported as 4.3. For the same compound, the log reduction at 1.4 % strength ([3]; Escherichia coli, ATCC10536, 45 s, dose 1.400 % w/v) was 5.9 and the log reduction at 1.6 % strength ([3]; Escherichia coli, ATCC10536, 45 s, dose 1.600 % w/v) was 7.3.
Work on `OC/C=C/c1ccccc1` [Cinnamic Alcohol Ord] yielded an Effect fraction ([3]; dose 0.200 % w/v) of 0.00, a Log reduction ([3]; dose 0.200 % w/v) of 0 and an Effect fraction ([3]; dose 0.250 % w/v) of 0.02. For the same compound, the Log reduction ([3]; dose 0.250 % w/v) was 0.2, the Effect fraction ([3]; dose 0.300 % w/v) was 0.17 and the Log reduction ([3]; dose 0.300 % w/v) was 1.3. It also gave an Effect fraction ([3]; dose 0.350 % w/v) of 0.52, a Log reduction ([3]; dose 0.350 % w/v) of 4.0 and an Effect fraction ([3]; dose 0.400 % w/v) of 1.00. For the same compound, the Log reduction ([3]; dose 0.400 % w/v) was 7.6.
Work on `O=C/C=C/c1ccccc1` [Cinnamic aldehyde] yielded a log reduction at 0.25 % strength ([2]; Staphylococcus aureus, ATCC6538, 1 min, Dose 0.25 % w/v, BCT 60 s) of 0.3, a log reduction at 0.3 % strength ([2]; Staphylococcus aureus, ATCC6538, 1 min, Dose 0.3 % w/v, BCT 60 s) of 2.9 and a log reduction at 0.325 % strength ([2]; Staphylococcus aureus, ATCC6538, 1 min, Dose 0.325 % w/v, BCT 60 s) of 4.2. The log reduction at 0.35 % strength ([2]; Staphylococcus aureus, ATCC6538, 1 min, Dose 0.35 % w/v, BCT 60 s) was 6.5 and the log reduction at 0.4 % strength ([2]; Staphylococcus aureus, ATCC6538, 1 min, Dose 0.4 % w/v, BCT 60 s) was 7.1.
With `CCOC(=O)C=Cc1ccccc1` [Ethyl Cinnamate] the log reduction at 0.03 % strength ([3]; Escherichia coli, ATCC10536, 45 s, dose 0.030 % w/v) was 1, the log reduction at 0.035 % strength ([3]; Escherichia coli, ATCC10536, 45 s, dose 0.035 % w/v) was 3.7 and the log reduction at 0.04 % strength ([3]; Escherichia coli, ATCC10536, 45 s, dose 0.040 % w/v) was 5.4. It also gave a log reduction at 0.045 % strength ([3]; Escherichia coli, ATCC10536, 45 s, dose 0.045 % w/v) of 7.3.
In the case of `COC(C)(C)CCCC(C)C=O` (stereo not drawn) [Methoxymelonal], the Effect fraction ([2]; Dose 0.600 % w/v, BCT 60 s) is reported as 0.020, the Log reduction ([2]; Dose 0.600 % w/v, BCT 60 s) is reported as 0.1 and the Effect fraction ([2]; Dose 0.800 % w/v, BCT 60 s) is reported as 0.110. For the same compound, the Log reduction ([2]; Dose 0.800 % w/v, BCT 60 s) was 0.8, the Effect fraction ([2]; Dose 0.900 % w/v, BCT 60 s) was 0.360 and the Log reduction ([2]; Dose 0.900 % w/v, BCT 60 s) was 2.6. It also gave an Effect fraction ([2]; Dose 1.000 % w/v, BCT 60 s) of 0.700, a Log reduction ([2]; Dose 1.000 % w/v, BCT 60 s) of 5.1 and an Effect fraction ([2]; Dose 1.200 % w/v, BCT 60 s) of 0.970. The Log reduction ([2]; Dose 1.200 % w/v, BCT 60 s) was 7.1.
`OCCc1ccccc1` [PEA] was tested, and the Effect fraction ([3]; dose 0.650 % w/v) was 0.00, the Log reduction ([3]; dose 0.650 % w/v) was 0.0 and the Effect fraction ([3]; dose 0.700 % w/v) was 0.01. It also gave a Log reduction ([3]; dose 0.700 % w/v) of 0.1, an Effect fraction ([3]; dose 0.750 % w/v) of 0.11 and a Log reduction ([3]; dose 0.750 % w/v) of 0.8. The Effect fraction ([3]; dose 0.800 % w/v) was 0.16, the Log reduction ([3]; dose 0.800 % w/v) was 1.2 and the Effect fraction ([3]; dose 0.850 % w/v) was 0.60. It also gave a Log reduction ([3]; dose 0.850 % w/v) of 4.3.
`CCC(CC(C)CC)=NO` (stereo not drawn) [Stemone] gave an Effect fraction ([2]; Dose 0.1 % w/v, BCT 60 s) of 0.050, a Log reduction ([2]; Dose 0.1 % w/v, BCT 60 s) of 0.4 and an Effect fraction ([2]; Dose 0.120 % w/v, BCT 60 s) of 0.220. The Log reduction ([2]; Dose 0.120 % w/v, BCT 60 s) was 1.6, the Effect fraction ([2]; Dose 0.140 % w/v, BCT 60 s) was 0.660 and the Log reduction ([2]; Dose 0.140 % w/v, BCT 60 s) was 4.8. The Effect fraction ([2]; Dose 0.15 % w/v, BCT 60 s) was 0.890, the Log reduction ([2]; Dose 0.15 % w/v, BCT 60 s) was 6.4 and the Effect fraction ([2]; Dose 0.160 % w/v, BCT 60 s) was 1.000. For the same compound, the Log reduction ([2]; Dose 0.160 % w/v, BCT 60 s) was 7.2.
Work on `CC(=O)OC(C)c1ccccc1` (stereo not drawn) [Styrallyl Acetate] yielded an Effect fraction ([3]; dose 0.120 % w/v) of 0.03, a Log reduction ([3]; dose 0.120 % w/v) of 0.3 and an Effect fraction ([3]; dose 0.140 % w/v) of 0.09. For the same compound, the Log reduction ([3]; dose 0.140 % w/v) was 0.7, the Effect fraction ([3]; dose 0.160 % w/v) was 0.37 and the Log reduction ([3]; dose 0.160 % w/v) was 2.7. It also gave an Effect fraction ([3]; dose 0.200 % w/v) of 1.00, a Log reduction ([3]; dose 0.200 % w/v) of 7.4 and an Effect fraction ([3]; dose […] w/v) of 0.86. For the same compound, the Log reduction ([3]; dose […] w/v) was 6.4.
